# Measurements taken from patent US20260055103A1, “2,3,4,9-TETRAHYDRO-1H-PYRIDO[3,4-B]INDOLE DERIVATIVES AS ESTROGEN RECEPTOR MODULATORS FOR THE TREATMENT OF CANCER” (Olema Pharmaceuticals, Inc., priority 2022, published 2026).
# Target: T1, estrogen receptor (Homo sapiens, UniProt P03372)
# T1 construct: endogenous in cells; host or cells: ECC-1 cells
# T1 sequence (P03372 1-595): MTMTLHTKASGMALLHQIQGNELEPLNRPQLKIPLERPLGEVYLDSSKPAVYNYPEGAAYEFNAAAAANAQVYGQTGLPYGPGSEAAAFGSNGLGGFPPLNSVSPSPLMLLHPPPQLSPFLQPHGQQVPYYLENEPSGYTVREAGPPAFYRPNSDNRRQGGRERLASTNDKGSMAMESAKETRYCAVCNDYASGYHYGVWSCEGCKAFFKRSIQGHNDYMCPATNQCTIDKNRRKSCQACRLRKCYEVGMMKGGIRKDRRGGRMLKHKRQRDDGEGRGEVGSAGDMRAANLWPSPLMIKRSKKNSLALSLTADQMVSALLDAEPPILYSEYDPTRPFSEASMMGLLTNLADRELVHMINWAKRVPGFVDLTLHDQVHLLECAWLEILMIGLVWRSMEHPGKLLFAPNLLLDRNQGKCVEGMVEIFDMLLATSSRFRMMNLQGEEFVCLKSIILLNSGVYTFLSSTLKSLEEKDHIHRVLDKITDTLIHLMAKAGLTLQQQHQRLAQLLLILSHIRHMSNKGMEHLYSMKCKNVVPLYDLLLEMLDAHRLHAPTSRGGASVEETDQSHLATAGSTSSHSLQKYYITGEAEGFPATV
# Assay: Alkaline phosphatase (AP) assay in ECC-1 cells, agonist mode (no E2) and antagonist mode (500 pM E2)
# Assay type: cell-based
# Conditions: 3 days, AP activity normalized to 500 pM E2 alone, agonist mode without E2, antagonist mode with 500 pM E2
# Protocol: ECC-1 cells were trypsinized and resuspended in hormone-depleted media and plated at a density of 15 k cells per well into a 96-well plate for at least 4 hours. Cells were treated with test compounds in the absence of E2 (for agonist mode) or in the presence of 500 pM E2 (for antagonist mode) for 3 days and plates were subsequently frozen at −80° C. Thawed plates were incubated with a chromogenic substrate of AP, p-nitrophenyl phosphate (Thermo Fisher Scientific), for 40 minutes at 42° C., and absorbances were read at 405 nm. AP activity was normalized to the activity of 500 pM E2 alone.
# The compound numbers correspond to the compound numbers of Table 1 and 2. Compounds having an activity designated as “+” provided estrogen receptor agonism having (i) at least 80% increase in the E2-normalized signal in the AP assay (agonist mode) and (ii) no more than 80% reduction in the E2-normalized signal in the AP assay (antagonist mode). Compounds having an activity designated as “++” provided estrogen receptor antagonism having (i) between 10% and 80% increase in the E2-normalized signal in the AP assay (agonist mode) and (ii) between 10% and 80% reduction in the E2-normalized signal in the AP assay (antagonist mode).
row,Structure (SMILES),"Activity (estrogen receptor modulation, agonism and antagonism)"
1,"CCCN1CC(Cc2cc(F)c([C@@H]3c4[nH]c5ccccc5c4C[C@@H](C)N3CC(C)(C)F)s2)C1 [Example I-11, 3-({4-fluoro-5-[(1S,3R)-2-(2-fluoro-2-methylpropyl)-3-methyl-1H,2H,3H,4H,9H-pyrido[3,4-b]indol-1-yl]thiophen-2-yl}methyl)-1-propylazetidine]",++ (estrogen receptor antagonism having (i) between 10% and 80% increase in the E2-normalized signal in the AP assay (agonist mode) and (ii) between 10% and 80% reduction in the E2-normalized signal in the AP assay (antagonist mode))
2,"CCCN1CC[C@@H](Cc2ncc([C@@H]3c4[nH]c5ccccc5c4C[C@@H](C)N3CC(F)(F)CO)s2)C1 [Example I-46, 2,2-difluoro-3-((1S,3R)-3-methyl-1-(2-(((S)-1-propylpyrrolidin-3-yl)methyl)thiazol-5-yl)-1,3,4,9-tetrahydro-2H-pyrido[3,4-b]indol-2-yl)propan-1-ol]",++ (estrogen receptor antagonism having (i) between 10% and 80% increase in the E2-normalized signal in the AP assay (agonist mode) and (ii) between 10% and 80% reduction in the E2-normalized signal in the AP assay (antagonist mode))
3,"C[C@@H]1Cc2c([nH]c3ccccc23)[C@@H](c2ccc(CC3CN(CCCF)C3)s2)N1CC(F)(F)C(F)(F)F [Example I-28, (1S,3R)-1-(5-((1-(3-fluoropropyl)azetidin-3-yl)methyl)thiophen-2-yl)-3-methyl-2-(2,2,3,3,3-pentafluoropropyl)-2,3,4,9-tetrahydro-1H-pyrido[3,4-b]indole]",++ (estrogen receptor antagonism having (i) between 10% and 80% increase in the E2-normalized signal in the AP assay (agonist mode) and (ii) between 10% and 80% reduction in the E2-normalized signal in the AP assay (antagonist mode))
4,"COCCCN1CC(Cc2ccc([C@@H]3c4[nH]c5ccccc5c4C[C@@H](C)N3CC(C)(C)F)s2)C1 [Example I-54, (1S,3R)-2-(2-fluoro-2-methyl-propyl)-1-[5-[[1-(3-methoxypropyl)azetidin-3-yl]methyl]-2-thienyl]-3-methyl-1,3,4,9-tetrahydropyrido[3,4-b]indole]",+ (estrogen receptor agonism having (i) at least 80% increase in the E2-normalized signal in the AP assay (agonist mode) and (ii) no more than 80% reduction in the E2-normalized signal in the AP assay (antagonist mode))
5,"C[C@@H]1Cc2c([nH]c3ccccc23)[C@@H](c2ccc(CC3CN(CCCF)C3)s2)N1CC(F)(F)F [Example I-20, 1-(3-fluoropropyl)-3-({5-[(1S,3R)-3-methyl-2-(2,2,2-trifluoroethyl)-1H,2H,3H,4H,9H-pyrido[3,4-b]indol-1-yl]thiophen-2-yl}methyl)azetidine]",++ (estrogen receptor antagonism having (i) between 10% and 80% increase in the E2-normalized signal in the AP assay (agonist mode) and (ii) between 10% and 80% reduction in the E2-normalized signal in the AP assay (antagonist mode))
6,"C[C@@H]1Cc2c([nH]c3ccccc23)[C@@H](c2ccc(CC3CN(CCCF)C3)s2)N1CC(F)(F)C(F)F [Example I-27, (1S,3R)-1-(5-((1-(3-fluoropropyl)azetidin-3-yl)methyl)thiophen-2-yl)-3-methyl-2-(2,2,3,3-tetrafluoropropyl)-2,3,4,9-tetrahydro-1H-pyrido[3,4-b]indole]",++ (estrogen receptor antagonism having (i) between 10% and 80% increase in the E2-normalized signal in the AP assay (agonist mode) and (ii) between 10% and 80% reduction in the E2-normalized signal in the AP assay (antagonist mode))
7,"C[C@@H]1Cc2c([nH]c3ccccc23)[C@@H](c2cnc(CC3CN(CCCF)C3)s2)N1CC(F)(F)F [Example I-38, 2-[[1-(3-fluoropropyl)azetidin-3-yl]methyl]-5-[(1S,3R)-3-methyl-2-(2,2,2-trifluoroethyl)-1,3,4,9-tetrahydropyrido[3,4-b]indol-1-yl]thiazole]",++ (estrogen receptor antagonism having (i) between 10% and 80% increase in the E2-normalized signal in the AP assay (agonist mode) and (ii) between 10% and 80% reduction in the E2-normalized signal in the AP assay (antagonist mode))
8,"CCCN1CCC(c2ccc([C@@H]3c4[nH]c5ccccc5c4C[C@@H](C)N3CC(C)(C)F)s2)CC1 [Example I-70, (1S,3R)-2-(2-fluoro-2-methyl-propyl)-3-methyl-1-[5-(1-propyl-4-piperidyl)-2-thienyl]-1,3,4,9-tetrahydropyrido[3,4-b]indole]",+ (estrogen receptor agonism having (i) at least 80% increase in the E2-normalized signal in the AP assay (agonist mode) and (ii) no more than 80% reduction in the E2-normalized signal in the AP assay (antagonist mode))
9,"C[C@@H]1Cc2c([nH]c3ccccc23)[C@@H](c2ccc(CCCN3CC[C@@H](CF)C3)s2)N1CC(C)(C)F [Example I-25, (1S,3R)-2-(2-fluoro-2-methylpropyl)-1-(5-(3-((R)-3-(fluoromethyl)pyrrolidin-1-yl)propyl)thiophen-2-yl)-3-methyl-2,3,4,9-tetrahydro-1H-pyrido[3,4-b]indole]",++ (estrogen receptor antagonism having (i) between 10% and 80% increase in the E2-normalized signal in the AP assay (agonist mode) and (ii) between 10% and 80% reduction in the E2-normalized signal in the AP assay (antagonist mode))
10,"C[C@@H]1Cc2c([nH]c3ccccc23)[C@@H](c2cnc(C[C@@H]3CCN(CCC(F)F)C3)s2)N1CC(C)(C)F [Example I-51, 2-[[(3S)-1-(3,3-difluoropropyl)pyrrolidin-3-yl]methyl]-5-[(1S,3R)-2-(2-fluoro-2-methyl-propyl)-3-methyl-1,3,4,9-tetrahydropyrido[3,4-b]indol-1-yl]thiazole]",+ (estrogen receptor agonism having (i) at least 80% increase in the E2-normalized signal in the AP assay (agonist mode) and (ii) no more than 80% reduction in the E2-normalized signal in the AP assay (antagonist mode))
11,"C[C@@H]1Cc2c([nH]c3ccccc23)[C@@H](c2ncc(CC3CN(CCCF)C3)s2)N1CC(C)(C)F [Example I-4, 2-[(1S,3R)-2-(2-fluoro-2-methylpropyl)-3-methyl-1H,2H,3H,4H,9H-pyrido[3,4-b]indol-1-yl]-5-{[1-(3-fluoropropyl)azetidin-3-yl]methyl}-1,3-thiazole]",+ (estrogen receptor agonism having (i) at least 80% increase in the E2-normalized signal in the AP assay (agonist mode) and (ii) no more than 80% reduction in the E2-normalized signal in the AP assay (antagonist mode))
12,"C[C@@H]1Cc2c([nH]c3ccccc23)[C@@H](c2cnc(N[C@H]3CCN(CCCF)C3)s2)N1CC(F)(F)CO [Example I-73, 2,2-difluoro-3-[(1S,3R)-1-[2-[[(3S)-1-(3-fluoropropyl)pyrrolidin-3-yl]amino]thiazol-5-yl]-3-methyl-1,3,4,9-tetrahydropyrido[3,4-b]indol-2-yl]propan-1-ol]",++ (estrogen receptor antagonism having (i) between 10% and 80% increase in the E2-normalized signal in the AP assay (agonist mode) and (ii) between 10% and 80% reduction in the E2-normalized signal in the AP assay (antagonist mode))
13,C[C@@H]1Cc2c([nH]c3ccccc23)[C@@H](c2cnc(C[C@@H]3CCN(CCCF)C3)s2)N1CC(F)(F)CO [Example I-42],++ (estrogen receptor antagonism having (i) between 10% and 80% increase in the E2-normalized signal in the AP assay (agonist mode) and (ii) between 10% and 80% reduction in the E2-normalized signal in the AP assay (antagonist mode))
14,"C[C@@H]1Cc2c([nH]c3ccccc23)[C@@H](c2ncc(CC3CN(CCC(F)F)C3)s2)N1CC(F)(F)F [Example I-39, 5-[[1-(3,3-difluoropropyl)azetidin-3-yl]methyl]-2-[(1S,3R)-3-methyl-2-(2,2,2-trifluoroethyl)-1,3,4,9-tetrahydropyrido[3,4-b]indol-1-yl]thiazole]",++ (estrogen receptor antagonism having (i) between 10% and 80% increase in the E2-normalized signal in the AP assay (agonist mode) and (ii) between 10% and 80% reduction in the E2-normalized signal in the AP assay (antagonist mode))
